Source: ChEMBL document CHEMBL1131958, “Synthesis of bisquinolines and their in vitro ability to produce methemoglobin in canine hemolysate” (1999)
Activity calls are given as the source filed them. The rule behind the calls is not given here.

Columns and labels:
Canis familiaris [1] = species: Canis familiaris; assay: In vitro effect on methemoglobin formation in blood of dog at 5 mM concentration; assay type: functional, Canis lupus familiaris
Canis familiaris [2] = species: Canis familiaris; assay: In vitro effect on methemoglobin formation in blood of dog at 1 mM concentration; assay type: functional, Canis lupus familiaris
Canis familiaris [3] = species: Canis familiaris; assay: In vitro effect on methemoglobin formation in blood of dog at 5 mM concentration; Nil; assay type: functional; details: Canis lupus familiaris
Canis familiaris [4] = species: Canis familiaris; assay: In vitro effect on methemoglobin formation in blood of dog at 1 mM concentration; Nil; assay type: functional; details: Canis lupus familiaris

## COc1cc(NC(C)CCCN)c2ncccc2c1 (stereo not drawn) [PRIMAQUINE]
Canis familiaris [1]
  Methemoglobin: 87.6%
Canis familiaris [2]
  Methemoglobin: 11.52%

## CCN(CC)CCCC(C)Nc1ccnc2cc(Cl)ccc12 (stereo not drawn)
Canis familiaris [3]
  Methemoglobin: inactive
Canis familiaris [4]
  Methemoglobin: inactive

## Clc1ccc2c(NCCCCNc3ccnc4cc(Cl)ccc34)ccnc2c1
Canis familiaris [1]
  Methemoglobin: 90.8%
Canis familiaris [2]
  Methemoglobin: 29.5%

## N/C(=N\CCCC(Nc1ccnc2cc(Cl)ccc12)C(=O)O)Nc1ccnc2cc(Cl)ccc12 (stereo not drawn)
Canis familiaris [1]
  Methemoglobin: 1.5%
Canis familiaris [4]
  Methemoglobin: Nil

## O=[N+]([O-])c1cc2c(NCCCCNc3ccnc4cc(Cl)c([N+](=O)[O-])cc34)ccnc2cc1Cl
Canis familiaris [1]
  Methemoglobin: 6.42%
Canis familiaris [4]
  Methemoglobin: Nil

## Clc1ccc2c(NCCN3CCN(c4ccnc5cc(Cl)ccc45)CC3)ccnc2c1
Canis familiaris [1]; Canis lupus familiaris
  Methemoglobin: Nil
Canis familiaris [4]
  Methemoglobin: Nil

## O=C(O)C(CCCCNc1ccnc2cc(Cl)ccc12)Nc1ccnc2cc(Cl)ccc12 (stereo not drawn)
Canis familiaris [3]
  Methemoglobin: Nil
Canis familiaris [4]
  Methemoglobin: Nil

## Clc1ccc2c(NCCNCCCCNCCNc3ccnc4cc(Cl)ccc34)ccnc2c1
Canis familiaris [1]
  Methemoglobin: 3%
Canis familiaris [4]
  Methemoglobin: Nil

## O=C(O)C(CCCNc1ccnc2cc(Cl)ccc12)Nc1ccnc2cc(Cl)ccc12 (stereo not drawn)
Canis familiaris [1]
  Methemoglobin: 6.89%
Canis familiaris [4]
  Methemoglobin: Nil
